# Patent US20160106110A1, “COMPOSITIONS AND METHODS FOR ENHANCING GERMINATION” (CORNELL UNIVERSITY, priority 2013, published 2016)
# What was measured:
# TrigoCor spores [1] = assay: Terbium chloride (DPA release) spore germination assay at 37° C., 10 mM germinant (Example 1); format: cell-based, Bacillus subtilis var. amyloliquefaciens; settings: for Percent germination of TrigoCor spores: 10 mM germinant, mean ± standard deviation; for percent germination of spores as compared to control (in words): summary of Table 1, 10 mM
# Method: Bacillus starter cultures were grown in nutrient broth plus yeast extract (Crane et al. 2013), then were transferred 1:1000 to a modified Schaeffer's sporulation medium (Nicholson and Setlow 1990) containing per liter 2.012 g KCl, 0.492 g MgSO4. 7 H20, no NaOH, and 0.0197 g MnCl2.4H20, and grown for 72 h. All cultures were grown in 50 mL aliquots in beveled flasks at 37° C. with 225 RPM shaking. Liquid cultures were spun down at 4° C. for 10 min at 10,000 RCF, washed 10 times in cold deionized water, and resuspended in 5 mL cold deionized water. To remove vegetative cells, cultures were treated with lysozyme (final concentration 50 μg/mL) for 10 min on ice, followed by six rounds of 15 sec sonication on ice, then were washed twice with cold deionized water. Spore preparations were stored in deionized water at 4° C., and prior to use were washed once with cold deionzied water. Unless otherwise noted, spores were resuspended in 25 mM HEPES (Sigma-Aldrich, St. Louis, Mo.) pH 7.41 to produce a final concentration of 10^8 CFUs/mL. Purified spore cultures contained over 98% phase-bright spores and minimal cell debris, as verified through phase contrast microscopy.
# Terbium chloride (1 mM) (Sigma-Aldrich, St. Louis, Mo.) and all germinant solutions were prepared in 25 mM HEPES pH 7.41 and added as noted in individual experiments. 90 μL TrigoCor spores were mixed with 10 μL of each germinant (100 mM, final concentration 10 mM) and incubated in a 96-well plate (Thermo Scientific, Waltham, Mass.) at 37° C. for 1, 10, 30, 60, or 120 min. Samples were prepared so that all incubations finished simultaneously and were analyzed together. For each germinant tested, two spore-germinant mixtures were loaded per incubation time. Germinants tested were D-glucose, D-fructose, KBr, KCl, L-alanine, L-asparagine, L-proline, L-valine, and the germinant combination AGFK (equimolar concentrations of L-asparagine, D-glucose, D-fructose, and KCl), or HEPES as a control. Following addition of 100 μL terbium chloride to all samples, fluorescence was measured as explained below.
# At each plate reader measurement time, two 90 μL samples of spores autoclaved for 60 min mixed with 10 μL HEPES, as well as a sample containing a mixture of all germinants and HEPES, were added as additional samples in the plate and mixed with 100 μL terbium chloride. A final sample of pure deionized water was included in the plate as well, and these samples were measured alongside all other samples in the plate. Fluorescence was measured at 545 nm emission and 273 nm excitation according to Yi and Setlow (2010) using a Synergy 4 plate reader (Biotek Instruments Inc., Winooski, Vt.). […] Percent spore germination for each sample at each time point was calculated by dividing its relative fluorescence units (RFUs) by the corresponding average RFUs of the autoclaved cells, which have released all their dipicolinic acid (DPA) due to lysis (Yang and Ponce 2009) and provided in Table 1. Spore germination results were confirmed using phase contrast microscopy (data not shown).
# TrigoCor spores [2] = assay: Terbium chloride spore germination assay at 37° C., 10 or 100 mM germinant (Example 2); format: cell-based, Bacillus subtilis var. amyloliquefaciens; settings: for Percent germination of TrigoCor spores: mean ± standard deviation; for percent germination of spores as compared to control (in words): summary of Table 2, 10 or 100 mM
# Method: The following protocol was performed as per Example 1, with the following modification:
# Terbium chloride (1 mM) (Sigma-Aldrich, St. Louis, Mo.) and all germinant solutions were prepared in 25 mM HEPES pH 7.41 and added as noted in individual experiments. 450 μL TrigoCor spores were mixed with 50 μL of each germinant (100 mM and 1 M, final concentrations 10 mM and 100 mM) and incubated at 37° C. Two samples were prepared for each germinant and germinants tested were D-glucose, L-alanine, AGFK, and an equimolar solution of glucose and alanine, or HEPES as a control. After 10, 30, 60, and 120 minutes of incubation, 100 μL was transferred from each tube to a 96-well plate. For an initial measurement of spore germination, two 100 μL samples of spores not mixed with germinants and kept at 4° C. were analyzed alongside the samples which had incubated for 10 minutes. Immediately following each sample time, 100 μL terbium chloride was added to all samples and fluorescence was measured as explained previously.
# Percent spore germination for each sample at each time point was calculated by dividing its relative fluorescence units (RFUs) by the corresponding average RFUs of the autoclaved cells, which have released all their dipicolinic acid (DPA) due to lysis (Yang and Ponce 2009) and provided in Table 2. Spore germination results were confirmed using phase contrast microscopy (data not shown).
# [3] = 10 mM germinant, incubation time 10 min
# [4] = 10 mM germinant, incubation time 30 min
# [5] = 10 mM germinant, incubation time 60 min
# [6] = 10 mM germinant, incubation time 120 min
# [7] = 100 mM germinant, incubation time 10 min
# [8] = 100 mM germinant, incubation time 30 min
# [9] = 100 mM germinant, incubation time 60 min
# [10] = 100 mM germinant, incubation time 120 min
Structure (SMILES),Percent germination of TrigoCor spores (TrigoCor spores [1]; incubation time 1 min) [%],Percent germination of TrigoCor spores (TrigoCor spores [1]; incubation time 10 min) [%],Percent germination of TrigoCor spores (TrigoCor spores [1]; incubation time 30 min) [%],Percent germination of TrigoCor spores (TrigoCor spores [1]; incubation time 60 min) [%],Percent germination of TrigoCor spores (TrigoCor spores [1]; incubation time 120 min) [%],percent germination of spores as compared to control (in words) (TrigoCor spores [1]),Percent germination of TrigoCor spores (TrigoCor spores [2]; [3]) [%],Percent germination of TrigoCor spores (TrigoCor spores [2]; [4]) [%],Percent germination of TrigoCor spores (TrigoCor spores [2]; [5]) [%],Percent germination of TrigoCor spores (TrigoCor spores [2]; [6]) [%],Percent germination of TrigoCor spores (TrigoCor spores [2]; [7]) [%],Percent germination of TrigoCor spores (TrigoCor spores [2]; [8]) [%],Percent germination of TrigoCor spores (TrigoCor spores [2]; [9]) [%],Percent germination of TrigoCor spores (TrigoCor spores [2]; [10]) [%],percent germination of spores as compared to control (in words) (TrigoCor spores [2])
O=C(CO)[C@@H](O)[C@H](O)[C@H](O)CO [D-fructose],1 ± 0,1 ± 0,1 ± 0,1 ± 1,1 ± 1,,,,,,,,,,
O=C[C@H](O)[C@@H](O)[C@H](O)[C@H](O)CO [D-glucose],1 ± 0,1 ± 0,5 ± 0,10 ± 1,25 ± 1,increases,1 ± 0,5 ± 0,13 ± 1,28 ± 2,1 ± 0,7 ± 1,18 ± 2,34 ± 1,increases
C[C@H](N)C(=O)O [L-alanine],1 ± 0,4 ± 0,20 ± 1,23 ± 1,21 ± 0,increases,1 ± 0,13 ± 1,41 ± 1,43 ± 1,1 ± 0,47 ± 1,86 ± 3,90 ± 3,increases
NC(=O)C[C@H](N)C(=O)O [L-asparagine],1 ± 0,1 ± 0,1 ± 0,1 ± 0,1 ± 0,,,,,,,,,,
O=C(O)[C@@H]1CCCN1 [L-proline],1 ± 0,1 ± 0,1 ± 0,1 ± 0,1 ± 0,,,,,,,,,,
CC(C)[C@H](N)C(=O)O [L-valine],1 ± 0,1 ± 0,1 ± 0,1 ± 0,1 ± 0,,,,,,,,,,
[Br-].[K+] [Potassium bromide],1 ± 0,1 ± 0,1 ± 0,1 ± 0,1 ± 0,,,,,,,,,,
[Cl-].[K+] [Potassium chloride],1 ± 0,1 ± 0,1 ± 0,1 ± 0,1 ± 0,,,,,,,,,,
